Measurements reported in patent publication US4992449A, “7-(substituted)cycloalkylamino-1 -(substituted)-6-fluoro-1,4-dihydro-4-oxo-3-quinolinecarboxylic acids” (American Cyanamid Company, priority 1990, dated 1991).
Converted amounts (≈) assume the structure as drawn. Where two headings read alike, the source gives them in different places.

What was measured:
Assay in all cases: In vitro antibacterial MIC, agar plate dilution
Type in all cases: cell-based
[1] = test system: Staphylococcus aureus VGH 84-47; details: VGH8447, Mueller-Hinton agar, 10^4 CFU, 18 hours, 35° C.
Experimental: (§1) The in vitro antimicrobial spectrum of the compounds of this invention were determined by the agar plate dilution method with Mueller-Hinton agar and an inoculum of each test organism of approximately 10^4 colony forming units delivered by the Steers replicating device. The minimal inhibitory concentration (MIC) in mcg/ml is defined as the lowest concentration of test compound that inhibited visible growth after 18 hours incubation at 35° C. Results are given in Table I, with the test compounds identified by the number of their hereinafter described examples

[2] = test system: Pseudomonas aeruginosa VGH 84-3; details: VGH843, Mueller-Hinton agar, 10^4 CFU, 18 hours, 35° C.
Experimental: as §1

[3] = test system: Moranella morganii VGH 84-12; details: Mueller-Hinton agar, 10^4 CFU, 18 hours, 35° C.
Experimental: as §1

[4] = test system: Streptococcus faecalis VGH 84-65; details: Enterococcus faecalis, VGH8465, 18 h, Table II, read-out: MIC
Experimental: as §1

[5] = test system: Escherichia coli ATCC 25922; details: Escherichia coli, ATCC25922, 18 h, read-out: MIC
Experimental: as §1

[6] = test system: Serratia marcescens K 84-18; details: K8418, 18 h, Table II, read-out: MIC
Experimental: as §1

[7] = test system: Serratia marcescens VGH 84-30; details: VGH8430, 18 h, Table II, read-out: MIC
Experimental: as §1

[8] = test system: Citrobacter diversus K 82-24; details: Citrobacter koseri, K8224, Mueller-Hinton agar, 10^4 CFU, 18 hours, 35° C.
Experimental: as §1

[9] = test system: Excherichia coli LL 311; details: 18 h, Table II, read-out: MIC
Experimental: as §1

[10] = test system: Proteus rettgeri IO 83-21; details: Providencia rettgeri, IO8321, Mueller-Hinton agar, 10^4 CFU, 18 hours, 35° C.
Experimental: as §1

[11] = test system: Escherichia coli CMC 84-50; details: CMC8450, Mueller-Hinton agar, 10^4 CFU, 18 hours, 35° C.
Experimental: as §1

[12] = test system: Enterobacter cloacae VGH 84-39; details: VGH8439, Mueller-Hinton agar, 10^4 CFU, 18 hours, 35° C.
Experimental: as §1

[13] = test system: Pseudomonas aeruginosa CMC 83-20; details: CMC8320, Mueller-Hinton agar, 10^4 CFU, 18 hours, 35° C.
Experimental: as §1

[14] = test system: Providencia stuartii CMC 83-3; details: CMC833, Mueller-Hinton agar, 10^4 CFU, 18 hours, 35° C.
Experimental: as §1

[15] = test system: Escherichia coli VGH 84-19; details: VGH8419, Mueller-Hinton agar, 10^4 CFU, 18 hours, 35° C.
Experimental: as §1

[16] = test system: Enterobacter cloacae MOR 84-30; details: MOR8430, Mueller-Hinton agar, 10^4 CFU, 18 hours, 35° C.
Experimental: as §1

[17] = test system: Staphylococcus aureus Smith 1; details: Staphylococcus aureus, SMITH1, 18 h, Table II, read-out: MIC
Experimental: as §1

[18] = test system: Morganella morganii MOR 84-45; details: MOR8445, Mueller-Hinton agar, 10^4 CFU, 18 hours, 35° C.
Experimental: as §1

[19] = test system: Klebsiella neumoniae CMC 84-31; details: CMC8431, Mueller-Hinton agar, 10^4 CFU, 18 hours, 35° C.
Experimental: as §1

[20] = test system: Morganella morganii CMC 84-37; details: CMC8437, 18 h, Table II, read-out: MIC
Experimental: as §1

[21] = test system: Proteus rettgeri CMC 84-41; details: Providencia rettgeri, CMC8441, 18 h, Table II, read-out: MIC
Experimental: as §1

[22] = test system: Streptococcus faecalis UCI 85-30; details: Enterococcus faecalis, UCI8530, Mueller-Hinton agar, 10^4 CFU, 18 hours, 35° C.
Experimental: as §1

[23] = test system: Serratia marcescens IO 83-63; details: IO8363, Mueller-Hinton agar, 10^4 CFU, 18 hours, 35° C.
Experimental: as §1

[24] = test system: Pseudomonas aeruginosa VGH 84-16; details: VGH8416, Mueller-Hinton agar, 10^4 CFU, 18 hours, 35° C.
Experimental: as §1

[25] = test system: Staphylococcus faecalis VGH 84-69; details: VGH8469, Mueller-Hinton agar, 10^4 CFU, 18 hours, 35° C.
Experimental: as §1

[26] = test system: Staphylococcus aureus K 82-26; details: K8226, Mueller-Hinton agar, 10^4 CFU, 18 hours, 35° C.
Experimental: as §1

[27] = test system: Moranella morganii CMC 84-38; details: Mueller-Hinton agar, 10^4 CFU, 18 hours, 35° C.
Experimental: as §1

[28] = test system: Serratia marcescens MOR 84-41; details: MOR8441, Mueller-Hinton agar, 10^4 CFU, 18 hours, 35° C.
Experimental: as §1

[29] = test system: Klebsiella neumoniae IO 83-5; details: IO835, Mueller-Hinton agar, 10^4 CFU, 18 hours, 35° C.
Experimental: as §1

[30] = test system: Escherichia coli MOR 84-20; details: MOR8420, Mueller-Hinton agar, 10^4 CFU, 18 hours, 35° C.
Experimental: as §1

[31] = Table I, Escherichia coli ATCC 25922, Mueller-Hinton agar, 10^4 CFU, 18 hours, 35° C.
[32] = Table II, Excherichia coli ATCC 25922

| MIC [1] [µg/mL] | MIC [2] [µg/mL] | MIC [3] [µg/mL] | MIC [4] [µg/mL] | MIC [5, 31] [µg/mL] | MIC [5, 32] [µg/mL] | MIC [6] [µg/mL] | MIC [7] [µg/mL] | MIC [8] [µg/mL] | MIC [9] [µg/mL] | MIC [10] [µg/mL] | MIC [11] [µg/mL] | MIC [12] [µg/mL] | MIC [13] [µg/mL] | MIC [14] [µg/mL] | MIC [15] [µg/mL] | MIC [16] [µg/mL] | MIC [17] [µg/mL] | MIC [18] [µg/mL] | MIC [19] [µg/mL] | Compound | other results |
| --- | --- | --- | --- | --- | --- | --- | --- | --- | --- | --- | --- | --- | --- | --- | --- | --- | --- | --- | --- | --- | --- |
| 2 (≈ 6 µM) | > 16 | 2 (≈ 6 µM) | 32 (≈ 96 µM) | 0.5 (≈ 1.5 µM) | 2 (≈ 6 µM) | 4 (≈ 12 µM) | 16 (≈ 48 µM) | 0.5 (≈ 1.5 µM) | 2 (≈ 6 µM) | 2 (≈ 6 µM) | 2 (≈ 6 µM) | 1 (≈ 3 µM) | > 16 | > 16 | 1 (≈ 3 µM) | 4 (≈ 12 µM) | 8 (≈ 24 µM) | 0.5 (≈ 1.5 µM) | 2 (≈ 6 µM) | CCn1cc(C(=O)O)c(=O)c2cc(F)c(N[C@@H]3CCC[C@@H]3N)cc21 (relative stereo) [Example 4, Cis-7-[(2-Aminocyclopentyl)amino]-1-ethyl-6-fluoro-1,4-dihydro-4-oxo-3-quinolinecarboxylic acid] | MIC [20]: 4 µg/mL (≈ 12 µM); MIC [21]: 8 µg/mL (≈ 24 µM); MIC [22]: 4 µg/mL (≈ 12 µM); MIC [23]: 1 µg/mL (≈ 3 µM); MIC [24]: > 16 µg/mL; MIC [25]: 4 µg/mL (≈ 12 µM); MIC [26]: 1 µg/mL (≈ 3 µM); MIC [27]: 1 µg/mL (≈ 3 µM); MIC [28]: 1 µg/mL (≈ 3 µM); MIC [29]: 2 µg/mL (≈ 6 µM); MIC [30]: 1 µg/mL (≈ 3 µM) |
| 4 (≈ 10 µM) | > 16 | 4 (≈ 10 µM) | 64 (≈ 160 µM) | 2 (≈ 5.01 µM) | 1 (≈ 2.5 µM) | 2 (≈ 5.01 µM) | 8 (≈ 20 µM) | 2 (≈ 5.01 µM) | 1 (≈ 2.5 µM) | 4 (≈ 10 µM) | 4 (≈ 10 µM) | 2 (≈ 5.01 µM) | > 16 | > 16 | 2 (≈ 5.01 µM) | 8 (≈ 20 µM) | 2 (≈ 5.01 µM) | 4 (≈ 10 µM) | 4 (≈ 10 µM) | N[C@H]1CCC[C@H]1Nc1cc2c(cc1F)c(=O)c(C(=O)O)cn2-c1ccc(F)cc1 (relative stereo) [Example 3] | MIC [20]: 4 µg/mL (≈ 10 µM); MIC [21]: 4 µg/mL (≈ 10 µM); MIC [22]: > 16 µg/mL; MIC [23]: 4 µg/mL (≈ 10 µM); MIC [24]: > 16 µg/mL; MIC [25]: > 16 µg/mL; MIC [26]: 4 µg/mL (≈ 10 µM); MIC [27]: 8 µg/mL (≈ 20 µM); MIC [28]: 4 µg/mL (≈ 10 µM); MIC [29]: 4 µg/mL (≈ 10 µM); MIC [30]: 2 µg/mL (≈ 5.01 µM) |
